For this series, the system named is human PBMCs. As to the kind of experiment: Human PBMC cytokine response assay (IFN-γ and IFN-α in cell-free medium by ELISA), with or without cPLGA.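 As to IFN-α (pg/ml) mean: 20 µg/mL compound for 24 hours.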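 As to IFN-γ (pg/ml) mean: 20 µg/mL compound for 24 hours.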 The class given is cell-based. The following applies: for IFN-a / IFN-g / IFN-a mean / IFN-g mean: Table 25; for IFN-a mean / IFN-g mean: mean of donors 28250-28253; for IFN-α from human PBMC compared with parent oligonucleotide P-17, in words: low doses (e.g., 0.8 ug/ml), four individuals. For orientation: An ELISA detects its analyte on a solid surface through an enzyme-linked reagent.

[1] abbreviates: mean of donors 110, 112, 119, 120, Table 14.
The mark [2] stands for this setting: donor 28250, polynucleotides/spacers at amounts equivalent to the CIC, spacers alone 9 uM.
Where [3] appears, read: Example 58, 0.8 ug/ml, mean of four individuals.
Setting [4] is: Example 58, 4 ug/ml, mean of four individuals.
Where [5] appears, read: Example 58, 20 ug/ml, mean of four individuals.

As for “5′-TTCGTTT-3′-HEG-5′-TTCGTTT-3′-HEG-5′-TTCGTTT-3′ [Compound C-46]”, the IFN-α (Table 10, donor 28042) is 24 pg/mL; the IFN-α (Table 10, donor 28043) is 73 pg/mL; the IFN-α (Table 10, donor 28044) is 26 pg/mL; the IFN-α (Table 10, donor 28045) is 3 pg/mL; the “IFN-α” value (donor 110, Table 14) was found to be 58 pg/mL; the “IFN-α” value (donor 112, Table 14) was 2 pg/mL. The “IFN-α” value runs as follows: (donor 119, Table 14) 208 pg/mL; (donor 120, Table 14) 48 pg/mL. The IFN-γ by setting is: (Table 10, donor 28042) 399 pg/mL; (Table 10, donor 28043) 814 pg/mL; (Table 10, donor 28044) 480 pg/mL; (Table 10, donor 28045) 63 pg/mL; (donor 110, Table 14) 1224 pg/mL; (donor 112, Table 14) 400 pg/mL. The “IFN-γ” value is, setting by setting: (donor 119, Table 14) 68 pg/mL; (donor 120, Table 14) 36 pg/mL. This compound also gave an IFN-α mean (Table 10, mean of donors) of 31 pg/mL. This compound also yielded an IFN-γ mean (Table 10, mean of donors) of 439 pg/mL. The “IFN-α (pg/ml) mean” value under setting [1] stood at 79 pg/mL. Further, the “IFN-γ (pg/ml) mean” value under setting [1] stood at 432 pg/mL. Besides, the “immunomodulatory activity (IFN-γ / IFN-α secretion), in words” value (used alone (no cPLGA)) is “more active than other CG-containing CICs”.

Take `OCC(O)CO` [Glycerol]: the IFN-a mean worked out at 16 pg/mL and the IFN-g mean stood at 8 pg/mL. Further, the IFN-a (donor 28250) was 16 pg/mL. Further, the IFN-g under setting [2] was 16 pg/mL. Where the note is “donor 28251”, this compound yielded an IFN-a of 16 pg/mL and an IFN-g of 12 pg/mL. Moreover, for the setting “donor 28252”, the IFN-a was found to be 16 pg/mL and the IFN-g came to 2 pg/mL. For the setting “donor 28253”, this compound returned an IFN-a of 16 pg/mL and an IFN-g of 1 pg/mL.

For `OCCOCCOCCO` [Triethylene glycol], the IFN-a mean is 16 pg/mL and the IFN-g mean came out at 6 pg/mL. Also, the IFN-a (donor 28250) was found to be 16 pg/mL. Besides, the IFN-g under setting [2] came out at 15 pg/mL. Under “donor 28251”, the IFN-a was determined as 16 pg/mL and the IFN-g is 1 pg/mL. Where the note is “donor 28252”, this compound displayed an IFN-a of 16 pg/mL and an IFN-g of 7 pg/mL. Besides, under “donor 28253”, the IFN-a worked out at 16 pg/mL and the IFN-g is 1 pg/mL.

As to “(5′-TAGTCAT-3′-HEG)2-glycerol-HEG-5′-AACCTTC-3′ [Compound M-3, reference compound]”, the IFN-α (Example 58, 0.8 ug/ml, donor 1) amounted to 52 pg/mL; the IFN-α (Example 58, 0.8 ug/ml, donor 2) was 52 pg/mL; the IFN-α (Example 58, 0.8 ug/ml, donor 3) turned out to be 52 pg/mL; the IFN-α (Example 58, 0.8 ug/ml, donor 4) worked out at 52 pg/mL; the IFN-α (Example 58, 4 ug/ml, donor 1) is 52 pg/mL; the IFN-α (Example 58, 4 ug/ml, donor 2) was 52 pg/mL. For the same compound, the IFN-α reads like this: (Example 58, 4 ug/ml, donor 3) 52 pg/mL; (Example 58, 4 ug/ml, donor 4) 52 pg/mL; (Example 58, 20 ug/ml, donor 1) 52 pg/mL; (Example 58, 20 ug/ml, donor 2) 52 pg/mL; (Example 58, 20 ug/ml, donor 3) 52 pg/mL; (Example 58, 20 ug/ml, donor 4) 52 pg/mL. Besides, the IFN-α by setting is: (Example 59, 0.8 ug/ml, donor 48) 102 pg/mL; (Example 59, 0.8 ug/ml, donor 177) 102 pg/mL; (Example 59, 0.8 ug/ml, donor 272) 102 pg/mL; (Example 59, 0.8 ug/ml, donor 273) 102 pg/mL; (Example 59, 4 ug/ml, donor 48) 102 pg/mL; (Example 59, 4 ug/ml, donor 177) 102 pg/mL. Further, the IFN-α was 102 pg/mL (Example 59, 4 ug/ml, donor 272); 102 pg/mL (Example 59, 4 ug/ml, donor 273); 102 pg/mL (Example 59, 20 ug/ml, donor 48); 102 pg/mL (Example 59, 20 ug/ml, donor 177); 102 pg/mL (Example 59, 20 ug/ml, donor 272); 102 pg/mL (Example 59, 20 ug/ml, donor 273). The IFN-α mean by setting is: under setting [3], 52 pg/mL; under setting [4], 52 pg/mL; under setting [5], 52 pg/mL; (Example 59, 0.8 ug/ml, mean of four donors) 102 pg/mL; (Example 59, 4 ug/ml, mean of four donors) 102 pg/mL; (Example 59, 20 ug/ml, mean of four donors) 102 pg/mL.

For “(5′-TCGAACGTTCGA-3′ (SEQ ID NO: 155)-HEG)2-glycerol-HEG-3′-AGCTTGCAAGCT-5′ (SEQ ID NO: 155) (DNA, all phosphorothioate, methylation of C not given here; Three DNA copies joined by HEG spacers and glycerol branching, one copy inverted) [Compound C-174]”, the “IFN-α from human PBMC compared with parent oligonucleotide P-17, in words” value is “induce significantly more IFN-α”. Moreover, for the setting “Example 58, 0.8 ug/ml, donor 1”, the IFN-α was 7907 pg/mL. Under “Example 58, 0.8 ug/ml, donor 2”, this compound yielded an IFN-α of 11198 pg/mL. For the same compound, for the setting “Example 58, 0.8 ug/ml, donor 3”, the IFN-α was 998 pg/mL. Under “Example 58, 0.8 ug/ml, donor 4”, this compound displayed an IFN-α of 1752 pg/mL. Moreover, under setting [3], the IFN-α mean was 5464 pg/mL. Also, the IFN-α (Example 58, 4 ug/ml, donor 1) was determined as 5601 pg/mL. For the setting “Example 58, 4 ug/ml, donor 2”, this compound showed an IFN-α of 7845 pg/mL. The same compound returned an IFN-α (Example 58, 4 ug/ml, donor 3) of 1016 pg/mL. Besides, the IFN-α (Example 58, 4 ug/ml, donor 4) is 5895 pg/mL. The same compound had an IFN-α mean under setting [4] of 5089 pg/mL. Further, the IFN-α (Example 58, 20 ug/ml, donor 1) was 1350 pg/mL. The IFN-α (Example 58, 20 ug/ml, donor 2) was 1176 pg/mL. Under “Example 58, 20 ug/ml, donor 3”, this compound showed an IFN-α of 61 pg/mL. In addition, the IFN-α (Example 58, 20 ug/ml, donor 4) worked out at 837 pg/mL. This compound also showed an IFN-α mean under setting [5] of 856 pg/mL.

Regarding “(5′-TCGAACGTTCGA-3′ (SEQ ID NO: 155)-HEG)2-glycerol-HEG-5′-TCGAACGTTCGA-3′ (SEQ ID NO: 155) (three copies via HEG-glycerol branching, chemistry not fully specified) [Compound C-173]”, the “IFN-α from human PBMC compared with parent oligonucleotide P-17, in words” value was “induce significantly more IFN-α”. Where the note is “Example 58, 0.8 ug/ml, donor 1”, this compound displayed an IFN-α of 272 pg/mL. This compound also had an IFN-α (Example 58, 0.8 ug/ml, donor 2) of 1293 pg/mL. This compound also came in with an IFN-α (Example 58, 0.8 ug/ml, donor 3) of 1138 pg/mL. This compound showed an IFN-α (Example 58, 0.8 ug/ml, donor 4) of 2547 pg/mL. Also, the IFN-α mean under setting [3] is 1312 pg/mL. Also, the IFN-α (Example 58, 4 ug/ml, donor 1) was 3828 pg/mL. The compound also came in with an IFN-α (Example 58, 4 ug/ml, donor 2) of 2917 pg/mL. The IFN-α (Example 58, 4 ug/ml, donor 3) was found to be 2197 pg/mL. Moreover, the IFN-α (Example 58, 4 ug/ml, donor 4) was determined as 3563 pg/mL. The compound also had an IFN-α mean under setting [4] of 3126 pg/mL. Under “Example 58, 20 ug/ml, donor 1”, this compound displayed an IFN-α of 14381 pg/mL. Besides, the IFN-α (Example 58, 20 ug/ml, donor 2) amounted to 8060 pg/mL. The compound further gave an IFN-α (Example 58, 20 ug/ml, donor 3) of 66 pg/mL. For the setting “Example 58, 20 ug/ml, donor 4”, this compound yielded an IFN-α of 299 pg/mL. The compound further had an IFN-α mean under setting [5] of 5701 pg/mL.

“(5′-TCGAACGTTCGA-3′ (SEQ ID NO: 155)-HEG)3-trebler-HEG-5′-T-3′ (three copies HEG-trebler branched, HEG-T, chemistry not fully specified) [Compound C-175]”: the “IFN-α from human PBMC compared with parent oligonucleotide P-17, in words” value is listed as “induce significantly more IFN-α”. The compound also gave an IFN-α (Example 58, 0.8 ug/ml, donor 1) of 21783 pg/mL. For the same compound, the IFN-α (Example 58, 0.8 ug/ml, donor 2) was 16605 pg/mL. The IFN-α (Example 58, 0.8 ug/ml, donor 3) came to 851 pg/mL. This compound also gave an IFN-α (Example 58, 0.8 ug/ml, donor 4) of 2874 pg/mL. Moreover, the IFN-α mean under setting [3] is 10528 pg/mL. For the same compound, the IFN-α (Example 58, 4 ug/ml, donor 1) was determined as 7134 pg/mL. The compound further registered an IFN-α (Example 58, 4 ug/ml, donor 2) of 6779 pg/mL. This compound returned an IFN-α (Example 58, 4 ug/ml, donor 3) of 906 pg/mL. This compound displayed an IFN-α (Example 58, 4 ug/ml, donor 4) of 1951 pg/mL. Further, the IFN-α mean under setting [4] worked out at 4193 pg/mL. Moreover, where the note is “Example 58, 20 ug/ml, donor 1”, the IFN-α was determined as 2250 pg/mL. Also, the IFN-α (Example 58, 20 ug/ml, donor 2) came out at 732 pg/mL. Also, the IFN-α (Example 58, 20 ug/ml, donor 3) was 52 pg/mL. In addition, for the setting “Example 58, 20 ug/ml, donor 4”, the IFN-α came out at 52 pg/mL. Further, the IFN-α mean under setting [5] was determined as 771 pg/mL.

(Values after patent publication US9028845B2, “Chimeric immunomodulatory compounds and methods of using the same-IV” (Dynavax Technologies Corporation, priority 2001, dated 2015).)
